Tests used:
[1] = biological target: Kir6.2 (pore subunit of the pancreatic beta-cell KATP channel) (Mus musculus, UniProt Q61743); experiment: inside-out patch-clamp, single-channel NPo concentration-effect; assay type: cell-based
[2] = biological target: SUR1 (sulphonylurea receptor subunit of the pancreatic beta-cell KATP channel) (Mus musculus, UniProt B2RUS7); experiment: standard whole-cell patch-clamp, block by a single concentration; assay type: cell-based; details: read-out: % inhibition at 20 μmol/L
SUR1 (sulphonylurea receptor subunit of the pancreatic beta-cell KATP channel), sequence (B2RUS7 1-1588): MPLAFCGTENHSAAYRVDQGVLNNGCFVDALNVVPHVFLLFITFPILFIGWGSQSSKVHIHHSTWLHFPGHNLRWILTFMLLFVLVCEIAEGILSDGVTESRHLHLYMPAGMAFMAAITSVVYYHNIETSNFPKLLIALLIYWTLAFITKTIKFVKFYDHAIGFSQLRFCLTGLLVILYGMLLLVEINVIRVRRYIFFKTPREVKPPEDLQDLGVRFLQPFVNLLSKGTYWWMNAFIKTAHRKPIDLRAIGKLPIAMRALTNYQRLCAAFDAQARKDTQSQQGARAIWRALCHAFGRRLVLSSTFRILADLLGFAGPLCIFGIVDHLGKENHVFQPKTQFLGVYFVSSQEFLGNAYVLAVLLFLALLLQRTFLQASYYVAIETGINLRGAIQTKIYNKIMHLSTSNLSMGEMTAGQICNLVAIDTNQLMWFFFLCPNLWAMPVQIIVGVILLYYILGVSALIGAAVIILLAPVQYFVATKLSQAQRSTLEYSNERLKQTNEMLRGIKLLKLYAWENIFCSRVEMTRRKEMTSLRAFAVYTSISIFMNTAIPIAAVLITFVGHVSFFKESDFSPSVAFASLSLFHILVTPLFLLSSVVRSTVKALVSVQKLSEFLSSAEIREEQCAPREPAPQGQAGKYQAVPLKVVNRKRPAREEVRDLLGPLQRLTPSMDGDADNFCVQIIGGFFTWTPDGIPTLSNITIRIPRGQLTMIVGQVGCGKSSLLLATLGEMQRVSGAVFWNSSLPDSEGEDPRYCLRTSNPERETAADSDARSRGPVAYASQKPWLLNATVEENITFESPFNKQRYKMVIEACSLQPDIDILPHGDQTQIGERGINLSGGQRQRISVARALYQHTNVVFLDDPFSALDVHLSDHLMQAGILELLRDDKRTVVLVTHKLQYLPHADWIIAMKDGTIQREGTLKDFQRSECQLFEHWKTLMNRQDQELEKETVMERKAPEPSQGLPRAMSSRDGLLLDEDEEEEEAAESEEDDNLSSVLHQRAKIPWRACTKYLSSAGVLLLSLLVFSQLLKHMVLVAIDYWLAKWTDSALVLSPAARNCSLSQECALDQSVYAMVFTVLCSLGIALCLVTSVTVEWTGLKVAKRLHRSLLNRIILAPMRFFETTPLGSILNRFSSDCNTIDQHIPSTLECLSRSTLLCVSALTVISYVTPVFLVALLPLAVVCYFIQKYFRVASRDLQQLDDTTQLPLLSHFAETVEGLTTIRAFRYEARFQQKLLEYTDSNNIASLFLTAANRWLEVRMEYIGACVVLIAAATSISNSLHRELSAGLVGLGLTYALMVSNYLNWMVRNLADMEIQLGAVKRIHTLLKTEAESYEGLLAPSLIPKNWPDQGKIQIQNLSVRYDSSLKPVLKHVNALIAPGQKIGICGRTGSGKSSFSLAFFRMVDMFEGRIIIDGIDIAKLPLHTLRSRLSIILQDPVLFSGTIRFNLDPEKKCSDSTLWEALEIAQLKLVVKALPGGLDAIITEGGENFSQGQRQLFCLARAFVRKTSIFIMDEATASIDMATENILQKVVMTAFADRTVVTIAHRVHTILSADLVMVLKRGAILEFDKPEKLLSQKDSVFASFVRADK
SUR1 (sulphonylurea receptor subunit of the pancreatic beta-cell KATP channel), sequence (Q61743 whole entry partner): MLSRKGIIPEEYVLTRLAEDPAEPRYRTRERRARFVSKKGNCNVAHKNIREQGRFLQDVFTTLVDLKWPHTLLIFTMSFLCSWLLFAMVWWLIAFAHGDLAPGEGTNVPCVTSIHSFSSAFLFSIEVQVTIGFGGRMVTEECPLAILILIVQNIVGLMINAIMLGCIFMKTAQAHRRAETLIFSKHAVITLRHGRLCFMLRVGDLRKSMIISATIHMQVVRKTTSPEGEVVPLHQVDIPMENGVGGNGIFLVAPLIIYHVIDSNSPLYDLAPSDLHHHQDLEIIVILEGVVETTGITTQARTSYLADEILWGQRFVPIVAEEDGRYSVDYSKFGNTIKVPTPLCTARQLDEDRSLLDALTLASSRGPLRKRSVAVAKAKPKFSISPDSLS

Kir6.2 (pore subunit of the pancreatic beta-cell KATP channel), sequence (Q61743 whole entry): as the sequence (Q61743 whole entry partner) above
Kir6.2 (pore subunit of the pancreatic beta-cell KATP channel), sequence (B2RUS7 1-1588 partner): as the sequence (B2RUS7 1-1588) above

CCC(C)(C)C(=O)O[C@H]1C[C@@H](C)C=C2C=C[C@H](C)[C@H](CC[C@@H]3C[C@@H](O)CC(=O)O3)[C@H]21 [Sim, simvastatin]
IC50 [1]: 0.026 µM

CCCCNC(=O)NS(=O)(=O)c1ccc(C)cc1 [Tb, tolbutamide]
inhibition at 20 µM [2]: 43 ± 3.3%
